Source: paper PMC3968128, “Broadly Reactive Human CD8 T Cells that Recognize an Epitope Conserved between VZV, HSV and EBV” (PLoS Pathogens, 2014)
Ends that are not written are not given here.

How the values were obtained:
[1] = target: T1, HLA A*02:01 class I molecules (Homo sapiens, UniProt P04439, D140Y/D185E/D98H/E176V/E277Q/G131W/G231S/I119V/I121R/I166T/I218V/L300P/L318F/N151K/N90K/P208A/P217A/Q86G/Q94H/R138H/R169H/T345S); test: MHC-peptide binding assay, inhibition of binding of radiolabeled standard peptide; conditions: inhibition of binding of radiolabeled HBV core 18–27 analogue […]; purified MHC from JY cells; six concentrations, three or more independent assays; read-out: Measured affinity IC50
T1 construct: endogenous in cells; host or cells: JY (EBV-transformed homozygous B cell line)
Source text: Quantitative assays to measure the binding of peptides to HLA A*02:01 class I molecules are based on the inhibition of binding of a radiolabeled standard peptide (HBV core 18–27 analogue, […]). MHC molecules were purified by affinity chromatography from the EBV transformed homozygous cell line JY, and assays performed, as described previously. […] Under the conditions used, where [radiolabeled probe] < [MHC] and IC50 ≥ [MHC], the measured IC50 values are reasonable approximations of the true Kd values.

[2] = test system: PBMCs from HLA-A*0201+ volunteers; test: Ex vivo IFN-γ ELISpot assay; type: cell-based, human; conditions: individual peptides at 10 µg/ml; 20 h, 37°C
Source text: We recruited 21 HLA-A*0201 positive volunteers with a history of primary VZV infection, detectable VZV IgG but no previous VZV vaccination or clinical evidence of recent reactivation (Table 1). The median age was 63 years (range 25–77 years). Epitope predictions in the context of HLA-A*0201 were made using the Immune Epitope Database consensus prediction tool with the complete published VZV sequences (Table S1). The top 0.5% of 9- and 10-mers (367 peptides) were synthesized and peptide pools screened by IFN-γ ELISpot using PBMCs from each subject. In 15/21 subjects, the same peptide pool induced positive responses (Figure 1a). […] Tetramer+ cells were detected in 12/21 subjects with frequencies ranging from 0.01% to 1.8% of CD8 T cells (Figure 1d). ILI was thus identified as an immunodominant HLA-A*0201-restricted class I epitope.
Gamma interferon (IFN-γ) enzyme-linked immunospot (ELISpot) assays were performed using 2×10^5 PBMC stimulated with peptide pools (10 µg/ml/peptide). Peptide pools yielding positive responses were deconvoluted, by testing individual peptides at 10 µg/ml. After 20 h of incubation at 37°C, plates were developed, and responses were calculated. Positive wells contained ≥20 spot-forming units (SFU)/10^6 cells and a P value of ≤0.05 using a Student's t test in at least 2 experiments.

Sequence	IC50 [1] [nM]	IFN-γ production (individual peptides) [2]
ILIEGIFFA	0.15	–
ILIEGVFFA	0.16	–
MILIEGIFFV [10-mer candidate peptide from ribonucleotide reductase subunit 2 (RNR2) of VZV]	–	strongly induced IFN-γ production
ILIEGIFFV	0.03	–
LLIEGIFFI	0.12	–
